# Assay results as given in PubChem BioAssay (NCI).
#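 All cell lines were grown in 96-well plates and treated with compound for 48 hours. TGI marks complete inhibition of growth.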
# Tests used:
# Assay in all cases: NCI tumour cell line growth inhibition, 48 h
# 786-0 renal = system: 786-0 renal
# A549 NSCLC = system: A549 NSCLC
# ACHN renal = system: ACHN renal
# CAKI-1 renal = system: CAKI-1 renal
# CCRF-CEM leukemia = system: CCRF-CEM leukemia
# COLO 205 colon = system: COLO 205 colon
# DU-145 prostate = system: DU-145 prostate
# EKVX NSCLC = system: EKVX NSCLC
# HCC-2998 colon = system: HCC-2998 colon
# HCT-116 colon = system: HCT-116 colon
# HCT-15 colon = system: HCT-15 colon
# HL-60(TB) leukemia = system: HL-60(TB) leukemia
# HOP-62 NSCLC = system: HOP-62 NSCLC
# HOP-92 NSCLC = system: HOP-92 NSCLC
# HS 578T breast = system: HS 578T breast
# HT29 colon = system: HT29 colon
# IGROV1 ovarian = system: IGROV1 ovarian
# K-562 leukemia = system: K-562 leukemia
# KM12 colon = system: KM12 colon
# M14 melanoma = system: M14 melanoma
# MALME-3M melanoma = system: MALME-3M melanoma
# MCF7 breast = system: MCF7 breast
# MDA-MB-231 breast = system: MDA-MB-231 breast
# MDA-MB-435 = system: MDA-MB-435
# MDA-N = system: MDA-N
# MOLT-4 leukemia = system: MOLT-4 leukemia
# NCI-H226 lung = system: NCI-H226 lung
# NCI-H23 lung = system: NCI-H23 lung
# NCI-H460 lung = system: NCI-H460 lung
# NCI-H522 lung = system: NCI-H522 lung
# NCI/ADR-RES ovarian = system: NCI/ADR-RES ovarian
# OVCAR-3 ovarian = system: OVCAR-3 ovarian
# OVCAR-4 ovarian = system: OVCAR-4 ovarian
# OVCAR-5 ovarian = system: OVCAR-5 ovarian
# OVCAR-8 ovarian = system: OVCAR-8 ovarian
# PC-3 prostate = system: PC-3 prostate
# RPMI-8226 leukemia = system: RPMI-8226 leukemia
# RXF 393 renal = system: RXF 393 renal
# SF-268 CNS = system: SF-268 CNS
# SF-295 CNS = system: SF-295 CNS
# SF-539 CNS = system: SF-539 CNS
# SK-MEL-2 melanoma = system: SK-MEL-2 melanoma
# SK-MEL-28 melanoma = system: SK-MEL-28 melanoma
# SK-MEL-5 melanoma = system: SK-MEL-5 melanoma
# SK-OV-3 ovarian = system: SK-OV-3 ovarian
# SN12C renal = system: SN12C renal
# SNB-19 CNS = system: SNB-19 CNS
# SNB-75 CNS = system: SNB-75 CNS
# SR leukemia = system: SR leukemia
# SW-620 colon = system: SW-620 colon
# T-47D breast = system: T-47D breast
# U251 CNS = system: U251 CNS
# UACC-257 melanoma = system: UACC-257 melanoma
# UACC-62 melanoma = system: UACC-62 melanoma
# UO-31 renal = system: UO-31 renal
# A498 renal = system: A498 renal
# BT-549 breast = system: BT-549 breast
# LOX IMVI melanoma = system: LOX IMVI melanoma
# TK-10 renal = system: TK-10 renal
smiles,measurement,setting,value
O=C(Nc1ccn(C2CC(O)C(COC(c3ccccc3)(c3ccccc3)c3ccccc3)O2)c(=O)n1)c1ccccc1 (configuration not stated),TGI,786-0 renal,3.51 µM
same,TGI,A549 NSCLC,16.7 µM
same,TGI,ACHN renal,9.31 µM
same,TGI,CAKI-1 renal,18.4 µM
same,TGI,CCRF-CEM leukemia,6.2 µM
same,TGI,COLO 205 colon,4.07 µM
same,TGI,DU-145 prostate,17.8 µM
same,TGI,EKVX NSCLC,16.2 µM
same,TGI,HCC-2998 colon,21.6 µM
same,TGI,HCT-116 colon,4.29 µM
same,TGI,HCT-15 colon,6.4 µM
same,TGI,HL-60(TB) leukemia,5.52 µM
same,TGI,HOP-62 NSCLC,18.8 µM
same,TGI,HOP-92 NSCLC,3.59 µM
same,TGI,HS 578T breast,5.91 µM
same,TGI,HT29 colon,3.22 µM
same,TGI,IGROV1 ovarian,6.12 µM
same,TGI,K-562 leukemia,7.3 µM
same,TGI,KM12 colon,17.9 µM
same,TGI,M14 melanoma,4.57 µM
same,TGI,MALME-3M melanoma,5.89 µM
same,TGI,MCF7 breast,8.39 µM
same,TGI,MDA-MB-231 breast,7.5 µM
same,TGI,MDA-MB-435,5.68 µM
same,TGI,MDA-N,3.99 µM
same,TGI,MOLT-4 leukemia,5.1 µM
same,TGI,NCI-H226 lung,35.4 µM
same,TGI,NCI-H23 lung,3.34 µM
same,TGI,NCI-H460 lung,4.31 µM
same,TGI,NCI-H522 lung,13.4 µM
same,TGI,NCI/ADR-RES ovarian,5.25 µM
same,TGI,OVCAR-3 ovarian,3.52 µM
same,TGI,OVCAR-4 ovarian,7.88 µM
same,TGI,OVCAR-5 ovarian,3.53 µM
same,TGI,OVCAR-8 ovarian,3.71 µM
same,TGI,PC-3 prostate,5.35 µM
same,TGI,RPMI-8226 leukemia,5.2 µM
same,TGI,RXF 393 renal,6.99 µM
same,TGI,SF-268 CNS,20 µM
same,TGI,SF-295 CNS,3.55 µM
same,TGI,SF-539 CNS,8.49 µM
same,TGI,SK-MEL-2 melanoma,7.25 µM
same,TGI,SK-MEL-28 melanoma,12.1 µM
same,TGI,SK-MEL-5 melanoma,4.67 µM
same,TGI,SK-OV-3 ovarian,28.3 µM
same,TGI,SN12C renal,3.61 µM
same,TGI,SNB-19 CNS,14.2 µM
same,TGI,SNB-75 CNS,9.05 µM
same,TGI,SR leukemia,5.34 µM
same,TGI,SW-620 colon,5.46 µM
same,TGI,T-47D breast,16.7 µM
same,TGI,U251 CNS,11.4 µM
same,TGI,UACC-257 melanoma,28.3 µM
same,TGI,UACC-62 melanoma,20 µM
same,TGI,UO-31 renal,18.7 µM
O=C(/C=C/c1ccc(-c2ccccc2)cc1)NCc1ccc(C(=O)NCCc2ccccc2)cc1,TGI,786-0 renal,> 100 µM
same,TGI,A498 renal,> 100 µM
same,TGI,A549 NSCLC,> 100 µM
same,TGI,ACHN renal,> 100 µM
same,TGI,BT-549 breast,> 100 µM
same,TGI,CAKI-1 renal,> 100 µM
same,TGI,CCRF-CEM leukemia,39.1 µM
same,TGI,COLO 205 colon,> 100 µM
same,TGI,DU-145 prostate,> 100 µM
same,TGI,EKVX NSCLC,> 100 µM
same,TGI,HCC-2998 colon,> 100 µM
same,TGI,HCT-116 colon,> 100 µM
same,TGI,HCT-15 colon,> 100 µM
same,TGI,HOP-62 NSCLC,> 100 µM
same,TGI,HOP-92 NSCLC,> 100 µM
same,TGI,HT29 colon,> 100 µM
same,TGI,IGROV1 ovarian,> 100 µM
same,TGI,K-562 leukemia,> 100 µM
same,TGI,KM12 colon,> 100 µM
same,TGI,LOX IMVI melanoma,> 100 µM
same,TGI,M14 melanoma,> 100 µM
same,TGI,MALME-3M melanoma,> 100 µM
same,TGI,MCF7 breast,> 100 µM
same,TGI,MDA-MB-231 breast,> 100 µM
same,TGI,MDA-MB-435,> 100 µM
same,TGI,MDA-N,> 100 µM
same,TGI,MOLT-4 leukemia,> 100 µM
same,TGI,NCI-H226 lung,> 100 µM
same,TGI,NCI-H23 lung,> 100 µM
same,TGI,NCI-H460 lung,> 100 µM
same,TGI,NCI-H522 lung,> 100 µM
same,TGI,NCI/ADR-RES ovarian,> 100 µM
same,TGI,OVCAR-3 ovarian,> 100 µM
same,TGI,OVCAR-4 ovarian,> 100 µM
same,TGI,OVCAR-5 ovarian,> 100 µM
same,TGI,OVCAR-8 ovarian,> 100 µM
same,TGI,PC-3 prostate,> 100 µM
same,TGI,RPMI-8226 leukemia,> 100 µM
same,TGI,RXF 393 renal,94.9 µM
same,TGI,SF-268 CNS,> 100 µM
same,TGI,SF-295 CNS,> 100 µM
same,TGI,SF-539 CNS,38.1 µM
same,TGI,SK-MEL-2 melanoma,> 100 µM
same,TGI,SK-MEL-28 melanoma,> 100 µM
same,TGI,SK-MEL-5 melanoma,> 100 µM
same,TGI,SK-OV-3 ovarian,> 100 µM
same,TGI,SN12C renal,> 100 µM
same,TGI,SNB-19 CNS,> 100 µM
same,TGI,SNB-75 CNS,> 100 µM
same,TGI,SR leukemia,> 100 µM
same,TGI,SW-620 colon,> 100 µM
same,TGI,T-47D breast,> 100 µM
same,TGI,TK-10 renal,> 100 µM
same,TGI,U251 CNS,> 100 µM
same,TGI,UACC-257 melanoma,> 100 µM
same,TGI,UACC-62 melanoma,> 100 µM
same,TGI,UO-31 renal,> 100 µM
